Assays:
[1] = refractive index (Na D-line) (dimensionless); xn = mol fraction of the nth substance listed; settings: 101 kPa, Liquid
[2] = xn = mol fraction of the nth substance listed; settings: 101 kPa, Liquid

CCCCN(CCCC)CCCC [tributylamine] + c1ccccc1
Settings	mass density, [2] [kg/m3]	refractive index, [1]
278.15 K, x2 = 0.0702	790.1	1.4425
278.15 K, x2 = 0.1162	791.1	1.4495
278.15 K, x2 = 0.1687	792.5	1.4566
278.15 K, x2 = 0.2383	794.9	1.4636
278.15 K, x2 = 0.3091	797.7	1.4707
278.15 K, x2 = 0.4032	802.2	1.4779
278.15 K, x2 = 0.5043	808.5	1.485
278.15 K, x2 = 0.6492	821.3	1.4922
278.15 K, x2 = 0.8251	846.8	1.4994
283.15 K, x2 = 0.0702	786.7	1.4414
283.15 K, x2 = 0.1162	787.8	1.4485
283.15 K, x2 = 0.1687	789.3	1.4557
283.15 K, x2 = 0.2383	791.8	1.4628
283.15 K, x2 = 0.3091	794.6	1.47
283.15 K, x2 = 0.4032	799.2	1.4771
283.15 K, x2 = 0.5043	805.6	1.4842
283.15 K, x2 = 0.6492	818.5	1.4914
283.15 K, x2 = 0.8251	844.1	1.4985
288.15 K, x2 = 0.0702	783.2	1.4406
288.15 K, x2 = 0.1162	784.4	1.448
288.15 K, x2 = 0.1687	786	1.4551
288.15 K, x2 = 0.2383	788.5	1.4621
288.15 K, x2 = 0.3091	791.3	1.4692
288.15 K, x2 = 0.4032	795.9	1.4763
288.15 K, x2 = 0.5043	802.3	1.4834
288.15 K, x2 = 0.6492	815.2	1.4905
288.15 K, x2 = 0.8251	840.8	1.4976
293.15 K, x2 = 0.0702	779.9	1.4394
293.15 K, x2 = 0.1162	781.1	1.4466
293.15 K, x2 = 0.1687	782.7	1.4538
293.15 K, x2 = 0.2383	785.3	1.4609
293.15 K, x2 = 0.3091	788.1	1.4681
293.15 K, x2 = 0.4032	792.7	1.4752
293.15 K, x2 = 0.5043	799	1.4824
293.15 K, x2 = 0.6492	811.8	1.4896
293.15 K, x2 = 0.8251	837.1	1.4967
298.15 K, x2 = 0	774.3	–
298.15 K, x2 = 0.0702	775.6	1.4385
298.15 K, x2 = 0.1162	776.9	1.4456
298.15 K, x2 = 0.1687	778.5	1.4527
298.15 K, x2 = 0.2383	781	1.4602
298.15 K, x2 = 0.3091	783.8	1.4671
298.15 K, x2 = 0.4032	788.3	1.4742
298.15 K, x2 = 0.5043	794.5	1.4816
298.15 K, x2 = 0.6492	807	1.4881
298.15 K, x2 = 0.8251	831.6	1.4951
303.15 K, x2 = 0	770.8	–
303.15 K, x2 = 0.0702	772.5	1.4383
303.15 K, x2 = 0.1162	773.8	1.4454
303.15 K, x2 = 0.1687	775.4	1.4524
303.15 K, x2 = 0.2383	777.9	1.46
303.15 K, x2 = 0.3091	780.8	1.4667
303.15 K, x2 = 0.4032	785.4	1.474
303.15 K, x2 = 0.5043	791.6	1.4812
303.15 K, x2 = 0.6492	804.3	1.4876
303.15 K, x2 = 0.8251	829	1.4946
308.15 K, x2 = 0	767.2	–
308.15 K, x2 = 0.0702	769.1	1.4374
308.15 K, x2 = 0.1162	770.4	1.4443
308.15 K, x2 = 0.1687	771.9	1.4514
308.15 K, x2 = 0.2383	774.4	1.4589
308.15 K, x2 = 0.3091	777.3	1.4658
308.15 K, x2 = 0.4032	781.9	1.4733
308.15 K, x2 = 0.5043	788.1	1.4803
308.15 K, x2 = 0.6492	800.6	1.4868
308.15 K, x2 = 0.8251	824.9	1.4936
313.15 K, x2 = 0	763.6	–
313.15 K, x2 = 0.0702	765.5	1.4366
313.15 K, x2 = 0.1162	766.8	1.4438
313.15 K, x2 = 0.1687	768.4	1.4508
313.15 K, x2 = 0.2383	770.9	1.4581
313.15 K, x2 = 0.3091	773.8	1.465
313.15 K, x2 = 0.4032	778.4	1.4726
313.15 K, x2 = 0.5043	784.5	1.4795
313.15 K, x2 = 0.6492	797	1.486
313.15 K, x2 = 0.8251	821.1	1.4928
318.15 K, x2 = 0	759.8	–
318.15 K, x2 = 0.0702	761.8	1.4358
318.15 K, x2 = 0.1162	763.1	1.4431
318.15 K, x2 = 0.1687	764.8	1.45
318.15 K, x2 = 0.2383	767.2	1.4575
318.15 K, x2 = 0.3091	770.1	1.4643
318.15 K, x2 = 0.4032	774.7	1.4718
318.15 K, x2 = 0.5043	780.8	1.4788
318.15 K, x2 = 0.6492	793.3	1.4853
318.15 K, x2 = 0.8251	817.2	1.492

CCN(CC)CC [triethylamine] + c1ccccc1
Settings	mass density, [2] [kg/m3]	refractive index, [1]
278.15 K, x2 = 0.1145	751.3	1.4149
278.15 K, x2 = 0.2043	759.4	1.4197
278.15 K, x2 = 0.3005	769.2	1.4261
278.15 K, x2 = 0.4005	780.6	1.4336
278.15 K, x2 = 0.5023	793.6	1.4421
278.15 K, x2 = 0.6037	808.1	1.4518
278.15 K, x2 = 0.7035	824.2	1.4625
278.15 K, x2 = 0.8079	843.9	1.4756
278.15 K, x2 = 0.9069	866.2	1.4902
283.15 K, x2 = 0.1145	747.4	1.4133
283.15 K, x2 = 0.2043	755.5	1.418
283.15 K, x2 = 0.3005	765.4	1.4243
283.15 K, x2 = 0.4005	776.9	1.4318
283.15 K, x2 = 0.5023	790	1.4404
283.15 K, x2 = 0.6037	804.6	1.4501
283.15 K, x2 = 0.7035	821	1.4609
283.15 K, x2 = 0.8079	841	1.474
283.15 K, x2 = 0.9069	863.5	1.4886
288.15 K, x2 = 0.1145	743.3	1.4113
288.15 K, x2 = 0.2043	751.5	1.416
288.15 K, x2 = 0.3005	761.4	1.4224
288.15 K, x2 = 0.4005	772.9	1.43
288.15 K, x2 = 0.5023	786	1.4387
288.15 K, x2 = 0.6037	800.7	1.4485
288.15 K, x2 = 0.7035	817.2	1.4594
288.15 K, x2 = 0.8079	837.4	1.4727
288.15 K, x2 = 0.9069	859.9	1.4872
293.15 K, x2 = 0.1145	738.4	1.409
293.15 K, x2 = 0.2043	746.8	1.4137
293.15 K, x2 = 0.3005	756.7	1.4201
293.15 K, x2 = 0.4005	768.2	1.4278
293.15 K, x2 = 0.5023	781.4	1.4366
293.15 K, x2 = 0.6037	796.1	1.4465
293.15 K, x2 = 0.7035	812.7	1.4576
293.15 K, x2 = 0.8079	833.1	1.471
293.15 K, x2 = 0.9069	855.6	1.4856
298.15 K, x2 = 0	723.4	–
298.15 K, x2 = 0.1145	733.4	1.4062
298.15 K, x2 = 0.2043	741.8	1.411
298.15 K, x2 = 0.3005	751.7	1.4173
298.15 K, x2 = 0.4005	763.1	1.425
298.15 K, x2 = 0.5023	776.1	1.4338
298.15 K, x2 = 0.6037	790.7	1.4438
298.15 K, x2 = 0.7035	807.2	1.4549
298.15 K, x2 = 0.8079	827.4	1.4683
298.15 K, x2 = 0.9069	849.6	1.4829
303.15 K, x2 = 0	717.9	–
303.15 K, x2 = 0.1145	728.2	1.4038
303.15 K, x2 = 0.2043	737	1.4088
303.15 K, x2 = 0.3005	747.1	1.4151
303.15 K, x2 = 0.4005	758.7	1.4228
303.15 K, x2 = 0.5023	772	1.4317
303.15 K, x2 = 0.6037	786.8	1.4418
303.15 K, x2 = 0.7035	803.6	1.4531
303.15 K, x2 = 0.8079	824.2	1.4666
303.15 K, x2 = 0.9069	846.8	1.4812
308.15 K, x2 = 0	712.9	–
308.15 K, x2 = 0.1145	723.4	1.4009
308.15 K, x2 = 0.2043	732.3	1.4061
308.15 K, x2 = 0.3005	742.4	1.4125
308.15 K, x2 = 0.4005	754	1.4203
308.15 K, x2 = 0.5023	767.3	1.4293
308.15 K, x2 = 0.6037	782.1	1.4395
308.15 K, x2 = 0.7035	799	1.451
308.15 K, x2 = 0.8079	819.6	1.4647
308.15 K, x2 = 0.9069	842.1	1.4795
313.15 K, x2 = 0	708.3	–
313.15 K, x2 = 0.1145	718.9	1.3988
313.15 K, x2 = 0.2043	727.9	1.4043
313.15 K, x2 = 0.3005	738.1	1.4107
313.15 K, x2 = 0.4005	749.7	1.4185
313.15 K, x2 = 0.5023	762.9	1.4275
313.15 K, x2 = 0.6037	777.8	1.4378
313.15 K, x2 = 0.7035	794.7	1.4495
313.15 K, x2 = 0.8079	815.4	1.4632
313.15 K, x2 = 0.9069	837.8	1.4779
318.15 K, x2 = 0	701.6	–
318.15 K, x2 = 0.1145	712.6	1.3961
318.15 K, x2 = 0.2043	721.7	1.4017
318.15 K, x2 = 0.3005	732.1	1.4082
318.15 K, x2 = 0.4005	743.9	1.4161
318.15 K, x2 = 0.5023	757.2	1.4252
318.15 K, x2 = 0.6037	772.3	1.4356
318.15 K, x2 = 0.7035	789.5	1.4474
318.15 K, x2 = 0.8079	810.5	1.4613
318.15 K, x2 = 0.9069	833.1	1.4759

Source: the NIST ThermoML archive (doi:10.1007/s10765-006-0095-5)
